# Data published in patent EP0627489B1, “Methods and compositions for the treatment of malignancies in which a protein kinase is associated” (WASHINGTON RESEARCH FOUNDATION, priority 1990, dated 1991).
# Several values for one entry are separate records, joined by “and”; a condition that tells them apart may be missing. Equal values may be shown once. Read-outs that look alike come from different tables or passages of the source.
# Columns and labels:
# Assay type in all cases: biochemical
# TC.PTPase = molecular target: T1, TC.PTPase (Homo sapiens, UniProt P17706); test: Effectors of PTPase activity, full-length enzyme
# T1 construct: open reading frames of the full-length 48-kDa T cell PTPase (TC.PTPase); made in house; host or cells: Sf9 (Spodoptera frugiperda) insect cells, recombinant baculovirus (pVL 941)
# T1 sequence (P17706 1-415): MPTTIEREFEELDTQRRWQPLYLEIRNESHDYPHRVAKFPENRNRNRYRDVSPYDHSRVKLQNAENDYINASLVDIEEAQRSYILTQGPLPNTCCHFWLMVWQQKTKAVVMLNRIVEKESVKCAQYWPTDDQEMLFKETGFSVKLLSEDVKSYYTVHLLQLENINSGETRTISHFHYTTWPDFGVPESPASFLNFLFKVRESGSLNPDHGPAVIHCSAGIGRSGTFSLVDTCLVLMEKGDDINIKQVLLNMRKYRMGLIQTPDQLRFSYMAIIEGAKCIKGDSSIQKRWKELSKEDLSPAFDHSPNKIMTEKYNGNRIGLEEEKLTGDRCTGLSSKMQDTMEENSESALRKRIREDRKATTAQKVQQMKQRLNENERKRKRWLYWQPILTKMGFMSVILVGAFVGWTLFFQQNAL
# Experimental: (§1) Cell extracts or purified enzymes were assayed for tyrosine phosphatase using a method described by Tonks et al., in "Purification of the Major Protein-tyrosine-phosphatases of Human Placenta," J. Biol. Chem. (263):6722-6730, 1988, based on measurement of the release of ^32P from labeled substrate. Since phosphorylation of reduced, carboxyamidomethylated, maleylated (RCM)-lysozyme is not stoichiometric, concentrations are expressed in terms of ^32P phosphotyrosine. Briefly, a mixture of 0.02 ml of PTPase (diluted to less than 1 unit/ml in Buffer A) and 0.02 ml of Buffer A was warmed at 30°C for 5 minutes. Buffer A is composed of 25 mM imidazole HCl […], 1 mg/ml BSA, 0.1% (v/v) β-mercaptoethanol. […] The reaction was terminated after approximately 10 minutes by addition of 0.18 ml of 20% (w/v) trichloroacetic acid and 0.02 ml of 25 mg/ml BSA, added as a carrier protein. The suspension was vortexed, allowed to stand on ice for 10 minutes, and centrifuged at 12,500 x g for 3 minutes. A 0.2-ml aliquot of the supernatant was added to 1 ml of Aquasol scintillant and counted in a Beckman LS7000 scintillation counter. […] Blank incubations were performed in which the PTPase was replaced by Buffer A, and total ^32P was determined by counting 0.02 ml of the substrate. […] One unit of PTPase activity is defined as that amount which releases 1 nmol of phosphate/min. […]
# TCΔC11.PTPase [1] = molecular target: T2, TCΔC11.PTPase (Homo sapiens, UniProt P17706); test: Effectors of PTPase activity, truncated enzyme
# T2 construct: a truncated PTPase in which an 11-kDa segment was deleted from the carboxyl end (TCΔC11.PTPase-transfected cells); made in house; host or cells: Sf9 (Spodoptera frugiperda) insect cells, recombinant baculovirus (pVL 941)
# T2 sequence (P17706 1-317 limits assumed): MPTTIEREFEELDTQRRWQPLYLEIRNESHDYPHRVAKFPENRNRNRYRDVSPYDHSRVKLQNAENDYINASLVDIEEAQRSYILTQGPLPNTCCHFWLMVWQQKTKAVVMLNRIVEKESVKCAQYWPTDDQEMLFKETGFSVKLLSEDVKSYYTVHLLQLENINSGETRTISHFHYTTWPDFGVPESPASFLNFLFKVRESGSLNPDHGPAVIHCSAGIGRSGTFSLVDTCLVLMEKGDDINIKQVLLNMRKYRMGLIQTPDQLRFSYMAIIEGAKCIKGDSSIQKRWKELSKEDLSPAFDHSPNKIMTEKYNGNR
# TCΔC11.PTPase [2] = molecular target: T2, TCΔC11.PTPase; test: Effectors of PTPase activity, truncated enzyme; details: substrate RCML 5 µM
# Experimental: as §1
# [3] = effector 2 mM, substrate MBP 5 µM
# [4] = effector 10 µM, substrate MBP 5 µM
# [5] = effector 10 µM, substrate RCML 5 µM
# [6] = effector 0.01 µM, substrate MBP 5 µM
# [7] = effector 1 µM, substrate MBP 5 µM
# [8] = effector 100 µM, substrate MBP 5 µM
compound,measurement,setting,value
O=C(O)CN(CCN(CC(=O)O)CC(=O)O)CC(=O)O [EDTA],"Activity, percentage of phosphate released relative to control in which the effector was omitted",TC.PTPase,124 percentage and 137 percentage
same,"Activity, percentage of phosphate released relative to control in which the effector was omitted",TCΔC11.PTPase [1],170 percentage and 150 percentage
NCCCCNCCCN [spermidine],"Activity, percentage of phosphate released relative to control in which the effector was omitted",TC.PTPase; [3],43 percentage
same,"Activity, percentage of phosphate released relative to control in which the effector was omitted","TC.PTPase; effector 2 mM, substrate RCML 5 µM",249 percentage
same,"Activity, percentage of phosphate released relative to control in which the effector was omitted",TCΔC11.PTPase [1]; [3],108 percentage
same,"Activity, percentage of phosphate released relative to control in which the effector was omitted",TCΔC11.PTPase [2]; effector 2 mM,132 percentage
NCCCNCCCCNCCCN [spermine],"Activity, percentage of phosphate released relative to control in which the effector was omitted",TC.PTPase,62 percentage
same,activation of the full-length enzyme,TC.PTPase,up to sevenfold
same,remaining activity at 2000 µM,"TC.PTPase; 10 min, read-out: Activity, percentage of phosphate released relative to control in which the effector was omitted",727%
same,"Activity, percentage of phosphate released relative to control in which the effector was omitted",TCΔC11.PTPase [1],110 percentage and 97 percentage
molybdate,"Activity, percentage of phosphate released relative to control in which the effector was omitted",TC.PTPase; [4],1 percentage
same,"Activity, percentage of phosphate released relative to control in which the effector was omitted",TC.PTPase; [5],0 percentage
same,"Activity, percentage of phosphate released relative to control in which the effector was omitted",TCΔC11.PTPase [1]; [4],2 percentage
same,"Activity, percentage of phosphate released relative to control in which the effector was omitted",TCΔC11.PTPase [2]; effector 10 µM,2 percentage
poly Glu:Tyr 4:1,"Activity, percentage of phosphate released relative to control in which the effector was omitted",TC.PTPase; [6],119 percentage
same,"Activity, percentage of phosphate released relative to control in which the effector was omitted","TC.PTPase; effector 0.01 µM, substrate RCML 5 µM",66 percentage
same,"Activity, percentage of phosphate released relative to control in which the effector was omitted",TC.PTPase; [7],133 percentage
same,"Activity, percentage of phosphate released relative to control in which the effector was omitted","TC.PTPase; effector 1 µM, substrate RCML 5 µM",18 percentage
same,"Activity, percentage of phosphate released relative to control in which the effector was omitted",TC.PTPase; [4],58 percentage
same,"Activity, percentage of phosphate released relative to control in which the effector was omitted",TC.PTPase; [5],6 percentage
same,"Activity, percentage of phosphate released relative to control in which the effector was omitted",TCΔC11.PTPase [1]; [6],102 percentage
same,"Activity, percentage of phosphate released relative to control in which the effector was omitted",TCΔC11.PTPase [1]; [7],104 percentage
same,"Activity, percentage of phosphate released relative to control in which the effector was omitted",TCΔC11.PTPase [1]; [4],127 percentage
same,"Activity, percentage of phosphate released relative to control in which the effector was omitted",TCΔC11.PTPase [2]; effector 0.01 µM,70 percentage
same,"Activity, percentage of phosphate released relative to control in which the effector was omitted",TCΔC11.PTPase [2]; effector 1 µM,17 percentage
same,"Activity, percentage of phosphate released relative to control in which the effector was omitted",TCΔC11.PTPase [2]; effector 10 µM,11 percentage
vanadate,"Activity, percentage of phosphate released relative to control in which the effector was omitted",TC.PTPase; [8],0 percentage
same,"Activity, percentage of phosphate released relative to control in which the effector was omitted","TC.PTPase; effector 100 µM, substrate RCML 5 µM",0 percentage
same,"Activity, percentage of phosphate released relative to control in which the effector was omitted",TCΔC11.PTPase [1]; [8],1 percentage
same,"Activity, percentage of phosphate released relative to control in which the effector was omitted",TCΔC11.PTPase [2]; effector 100 µM,2 percentage
